Source: ChEMBL document CHEMBL1201862, “PubChem BioAssay data set” (2004)
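In this assay, cells in 96-well plates receive the compound at five concentrations for 48 hours. Endpoints are linearly interpolated between the surrounding concentrations. GI50 = concentration required for 50% inhibition of growth.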 The source made the active and inactive calls. No stated cut-off is given here; in the data, active = GI50 up to about 1.1 µM and inactive = higher.

What was measured:
Test in all cases: NCI-60 cell line screen, 48 h
[1] = test system: K562
[2] = test system: MOLT-4
[3] = test system: SF-295
[4] = test system: SK-MEL-28
[5] = test system: UO-31
[6] = test system: HOP-92
[7] = test system: U-251
[8] = test system: SR
[9] = test system: SNB-19
[10] = test system: NCI-H226
[11] = test system: SF-268
[12] = test system: OVCAR-3
[13] = test system: RPMI-8226
[14] = test system: RXF 631
[15] = test system: DLD-1
[16] = test system: CAKI-1
[17] = test system: OVCAR-5
[18] = test system: COLO 205
[19] = test system: XF498
[20] = test system: SNB-78
[21] = test system: SNB-75
[22] = test system: NCI-H522
[23] = test system: A549
[24] = test system: SN12C
[25] = test system: HCT-116
[26] = test system: SK-OV-3
[27] = test system: UACC-257
[28] = test system: KM-20L2
[29] = test system: 786-0
[30] = test system: KM12
[31] = test system: IGROV-1
[32] = test system: Malme-3M
[33] = test system: SF-539
[34] = test system: HCT-15
[35] = test system: OVCAR-8
[36] = test system: HOP-62
[37] = test system: DMS-273
[38] = test system: TK-10
[39] = test system: ACHN
[40] = test system: NCI-H460
[41] = test system: LOX IMVI
[42] = test system: HT-29
[43] = test system: SK-MEL-2
[44] = test system: M14
[45] = test system: M19-MEL
[46] = test system: NCI-H23
[47] = test system: UACC-62
[48] = test system: SW-620
[49] = test system: HCC 2998
[50] = test system: HL-60
[51] = test system: OVCAR-4
[52] = test system: LXFL 529
[53] = test system: CCRF-CEM
[54] = test system: EKVX
[55] = test system: SK-MEL-5
[56] = test system: A498
[57] = test system: RXF 393
[58] = test system: HOP-18

`O=C(COc1ccc(Cl)cc1)N1N=C(c2ccc([N+](=O)[O-])o2)CC1(O)c1ccccc1` (stereo unspecified) was tested, and the GI50 [1] was 3.72 µM (inactive), the GI50 [2] was 3.42 µM (inactive) and the GI50 [3] was 10.7 µM (inactive). The GI50 [4] was 12.2 µM (inactive), the GI50 [5] was 11.4 µM (inactive) and the GI50 [6] was 20.2 µM (inactive). The GI50 [7] was 4.94 µM (inactive), the GI50 [8] was 2.59 µM (inactive) and the GI50 [9] was 11.9 µM (inactive). For the same molecule, the GI50 [10] was 28.2 µM (inactive), the GI50 [11] was 10.5 µM (inactive) and the GI50 [12] was 3.77 µM (inactive). The GI50 [13] was 2.28 µM (inactive), the GI50 [14] was 7.87 µM (inactive) and the GI50 [15] was 4.66 µM (inactive). For the same molecule, the GI50 [16] was 17.4 µM (inactive), the GI50 [17] was 15.8 µM (inactive) and the GI50 [18] was 3.52 µM (inactive). The GI50 [19] was 10.5 µM (inactive), the GI50 [20] was 13.8 µM (inactive) and the GI50 [21] was > 10 µM (inactive). For the same molecule, the GI50 [22] was 15.5 µM (inactive), the GI50 [23] was 10 µM (inactive) and the GI50 [24] was 4.44 µM (inactive). For the same molecule, the GI50 [25] was 5.27 µM (inactive), the GI50 [26] was 19.3 µM (inactive) and the GI50 [27] was 4.05 µM (inactive). The GI50 [28] was 12.3 µM (inactive), the GI50 [29] was 7.62 µM (inactive) and the GI50 [30] was 6.58 µM (inactive). The GI50 [31] was 6.24 µM (inactive), the GI50 [32] was 10.4 µM (inactive) and the GI50 [33] was 13.1 µM (inactive). The GI50 [34] was 3.05 µM, the GI50 [35] was 5.62 µM (inactive) and the GI50 [36] was 20 µM (inactive). For the same molecule, the GI50 [37] was 5.28 µM (inactive), the GI50 [38] was 8.63 µM (inactive) and the GI50 [39] was 6.03 µM (inactive). For the same molecule, the GI50 [40] was 11.1 µM (inactive), the GI50 [41] was 10.8 µM (inactive) and the GI50 [42] was 4.81 µM (inactive). For the same molecule, the GI50 [43] was 7.24 µM (inactive), the GI50 [44] was 11.8 µM (inactive) and the GI50 [45] was 2.44 µM (inactive). The GI50 [46] was 2.03 µM (inactive), the GI50 [47] was 3.87 µM (inactive) and the GI50 [48] was 4.71 µM (inactive). The GI50 [49] was 4.11 µM (inactive), the GI50 [50] was 1.77 µM (inactive) and the GI50 [51] was 7.11 µM (inactive).

With `N#CCc1nnc(N)o1` the GI50 [1] was > 100 µM (inactive), the GI50 [2] was > 100 µM (inactive) and the GI50 [3] was > 100 µM (inactive). For the same molecule, the GI50 [4] was > 100 µM (inactive), the GI50 [5] was > 100 µM (inactive) and the GI50 [52] was > 100 µM (inactive). For the same molecule, the GI50 [6] was > 100 µM (inactive), the GI50 [7] was > 100 µM (inactive) and the GI50 [8] was > 100 µM (inactive). The GI50 [9] was > 100 µM (inactive), the GI50 [10] was > 100 µM (inactive) and the GI50 [11] was > 100 µM (inactive). The GI50 [12] was > 100 µM (inactive), the GI50 [13] was > 100 µM (inactive) and the GI50 [14] was > 100 µM (inactive). The GI50 [15] was > 100 µM (inactive), the GI50 [16] was > 100 µM (inactive) and the GI50 [53] was > 100 µM (inactive). For the same molecule, the GI50 [19] was > 100 µM (inactive), the GI50 [20] was > 100 µM (inactive) and the GI50 [21] was > 100 µM (inactive). For the same molecule, the GI50 [22] was > 100 µM (inactive), the GI50 [23] was > 100 µM (inactive) and the GI50 [24] was > 100 µM (inactive). The GI50 [25] was > 100 µM (inactive), the GI50 [26] was > 100 µM (inactive) and the GI50 [27] was > 100 µM (inactive). The GI50 [28] was > 100 µM (inactive), the GI50 [29] was > 100 µM (inactive) and the GI50 [30] was > 100 µM (inactive). The GI50 [31] was > 100 µM (inactive), the GI50 [32] was > 100 µM (inactive) and the GI50 [33] was > 100 µM (inactive). The GI50 [34] was greater than 100 µM, the GI50 [37] was > 100 µM (inactive) and the GI50 [38] was > 100 µM (inactive). For the same molecule, the GI50 [39] was > 100 µM (inactive), the GI50 [41] was > 100 µM (inactive) and the GI50 [43] was > 100 µM (inactive). For the same molecule, the GI50 [54] was > 100 µM (inactive), the GI50 [44] was > 100 µM (inactive) and the GI50 [45] was > 100 µM (inactive). The GI50 [46] was > 100 µM (inactive), the GI50 [47] was > 100 µM (inactive) and the GI50 [48] was > 100 µM (inactive). For the same molecule, the GI50 [50] was > 100 µM (inactive).

In the case of `C=C1C[C@]23CCC4C(C)(C)C(=O)CC[C@]4(C)C2C[C@H]1C(O)C3=O` (stereo partly specified), the GI50 [1] is reported as > 75 µM (inactive), the GI50 [2] is reported as > 75 µM (inactive) and the GI50 [3] is reported as > 75 µM (inactive). For the same molecule, the GI50 [4] was > 75 µM (inactive), the GI50 [5] was > 75 µM (inactive) and the GI50 [52] was > 75 µM (inactive). For the same molecule, the GI50 [7] was > 75 µM (inactive), the GI50 [8] was > 75 µM (inactive) and the GI50 [9] was > 75 µM (inactive). The GI50 [10] was > 75 µM (inactive), the GI50 [11] was > 75 µM (inactive) and the GI50 [12] was > 75 µM (inactive). The GI50 [13] was > 75 µM (inactive), the GI50 [14] was > 75 µM (inactive) and the GI50 [15] was > 75 µM (inactive). For the same molecule, the GI50 [53] was > 75 µM (inactive), the GI50 [55] was > 75 µM (inactive) and the GI50 [18] was > 75 µM (inactive). For the same molecule, the GI50 [19] was > 75 µM (inactive), the GI50 [20] was > 75 µM (inactive) and the GI50 [21] was > 75 µM (inactive). For the same molecule, the GI50 [22] was > 75 µM (inactive), the GI50 [23] was > 75 µM (inactive) and the GI50 [24] was > 75 µM (inactive). The GI50 [56] was > 75 µM (inactive), the GI50 [26] was > 75 µM (inactive) and the GI50 [27] was > 75 µM (inactive). For the same molecule, the GI50 [28] was > 75 µM (inactive), the GI50 [29] was > 75 µM (inactive) and the GI50 [30] was > 75 µM (inactive). The GI50 [31] was > 75 µM (inactive), the GI50 [32] was > 75 µM (inactive) and the GI50 [33] was > 75 µM (inactive). The GI50 [34] was greater than 75 µM, the GI50 [35] was > 75 µM (inactive) and the GI50 [36] was > 75 µM (inactive). For the same molecule, the GI50 [39] was > 75 µM (inactive), the GI50 [41] was > 75 µM (inactive) and the GI50 [43] was > 75 µM (inactive). For the same molecule, the GI50 [54] was > 75 µM (inactive), the GI50 [44] was > 75 µM (inactive) and the GI50 [57] was > 75 µM (inactive). For the same molecule, the GI50 [45] was > 75 µM (inactive), the GI50 [46] was > 75 µM (inactive) and the GI50 [47] was > 75 µM (inactive). The GI50 [48] was > 75 µM (inactive), the GI50 [50] was > 75 µM (inactive) and the GI50 [58] was > 75 µM (inactive). The GI50 [51] was > 75 µM (inactive).
